This note sets out measurements from article PMC7611208 (Clinical cancer research : an official journal of the …, 2019).

In this assay the target is T1, UCHL1 (Homo sapiens, UniProt P09936).
T1 sequence (P09936 1-220): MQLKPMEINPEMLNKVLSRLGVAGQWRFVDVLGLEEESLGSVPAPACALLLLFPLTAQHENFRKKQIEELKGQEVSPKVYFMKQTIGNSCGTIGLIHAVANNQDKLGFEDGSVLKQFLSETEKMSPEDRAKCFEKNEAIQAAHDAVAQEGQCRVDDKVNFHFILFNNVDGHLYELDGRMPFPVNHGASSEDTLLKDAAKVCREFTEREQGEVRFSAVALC
Nature of the assay: in vitro DUB IC50 assay. Type of assay: biochemical.

Broadly, the IC50 is the point on the concentration scale where inhibition reaches its midpoint. Read a high IC50 as a need for much substance. As for `N#CN1CC[C@H](C(=O)Nc2ncc(N3CCOCC3)s2)C1` [6RK73], the IC50 was found to be 230 nM.
